According to ChEMBL document CHEMBL4725315, “Structure-guided optimization of a novel class of ASK1 inhibitors with increased sp character and an exquisite selectivity profile” (Bioorg Med Chem Lett, 2020):
In brackets after ≈: the same amount, converted by molar mass. One block for each molecule: values may come before it.

Assays:
[1] = molecular target: T1, Mitogen-activated protein kinase kinase kinase 5 (Homo sapiens, UniProt Q99683); assay: Inhibition of ASK1 (unknown origin)
T1 sequence (Q99683 whole entry): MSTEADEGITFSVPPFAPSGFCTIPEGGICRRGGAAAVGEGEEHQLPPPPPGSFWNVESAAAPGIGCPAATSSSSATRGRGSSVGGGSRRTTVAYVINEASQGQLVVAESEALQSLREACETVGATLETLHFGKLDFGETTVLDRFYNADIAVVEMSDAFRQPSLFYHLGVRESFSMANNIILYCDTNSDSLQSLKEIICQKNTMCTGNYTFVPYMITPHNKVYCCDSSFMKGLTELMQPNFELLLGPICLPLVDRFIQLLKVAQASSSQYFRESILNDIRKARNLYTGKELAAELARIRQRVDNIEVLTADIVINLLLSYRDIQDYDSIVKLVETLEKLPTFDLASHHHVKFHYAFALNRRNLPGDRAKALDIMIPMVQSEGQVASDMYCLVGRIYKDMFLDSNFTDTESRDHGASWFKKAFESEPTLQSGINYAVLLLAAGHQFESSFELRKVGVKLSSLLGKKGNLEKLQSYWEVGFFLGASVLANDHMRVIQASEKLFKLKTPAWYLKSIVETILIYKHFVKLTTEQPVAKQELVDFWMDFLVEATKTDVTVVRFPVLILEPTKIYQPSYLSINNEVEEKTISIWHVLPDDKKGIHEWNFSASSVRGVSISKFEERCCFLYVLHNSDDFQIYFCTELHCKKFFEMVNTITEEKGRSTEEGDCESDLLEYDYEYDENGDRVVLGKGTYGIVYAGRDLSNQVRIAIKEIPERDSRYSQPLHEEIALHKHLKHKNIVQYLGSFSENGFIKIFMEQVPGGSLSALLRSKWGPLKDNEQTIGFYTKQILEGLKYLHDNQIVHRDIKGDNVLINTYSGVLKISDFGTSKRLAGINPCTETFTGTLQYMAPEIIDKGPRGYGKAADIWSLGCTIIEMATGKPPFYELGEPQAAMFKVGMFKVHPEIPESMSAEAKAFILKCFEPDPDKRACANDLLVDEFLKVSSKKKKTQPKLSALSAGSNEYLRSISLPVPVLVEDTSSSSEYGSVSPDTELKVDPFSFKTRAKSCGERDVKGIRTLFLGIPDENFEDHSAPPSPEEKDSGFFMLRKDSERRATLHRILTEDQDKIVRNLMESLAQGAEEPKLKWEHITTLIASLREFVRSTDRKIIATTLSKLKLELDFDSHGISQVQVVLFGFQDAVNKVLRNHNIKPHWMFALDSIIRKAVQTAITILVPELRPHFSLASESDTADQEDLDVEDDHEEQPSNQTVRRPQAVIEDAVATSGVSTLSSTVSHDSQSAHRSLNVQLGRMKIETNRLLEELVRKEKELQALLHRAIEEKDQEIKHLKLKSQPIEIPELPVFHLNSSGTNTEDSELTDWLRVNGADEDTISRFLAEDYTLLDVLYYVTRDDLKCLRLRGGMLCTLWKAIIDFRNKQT

MAP kinase p38 = MAP kinase p38 (Homo sapiens, UniProt O15264+Q15759+Q16539+P53778); assay: Inhibition of p38 (unknown origin); type: protein assay
[2] = molecular target: Epidermal growth factor receptor (Homo sapiens, UniProt P00533); assay: Inhibition of EGFR (unknown origin)
[3] = molecular target: T2, Receptor tyrosine-protein kinase erbB-4 (Homo sapiens, UniProt Q15303); assay: Inhibition of HER4 (unknown origin)
[4] = molecular target: Tyrosine-protein kinase Mer (Homo sapiens, UniProt Q12866); assay: Inhibition of MER (unknown origin)
[5] = molecular target: Proto-oncogene tyrosine-protein kinase receptor Ret (Homo sapiens, UniProt P07949); assay: Inhibition of RET (unknown origin)
[6] = molecular target: Rho-associated protein kinase 1 (Homo sapiens, UniProt Q13464); assay: Inhibition of ROCK1 (unknown origin)
[7] = molecular target: Tyrosine-protein kinase ITK/TSK (Homo sapiens, UniProt Q08881); assay: Inhibition of ITK (unknown origin)
[8] = molecular target: T2, Receptor tyrosine-protein kinase erbB-4; assay: Inhibition of ERBB4 (unknown origin)
Ephrin type-A receptor 3 = Ephrin type-A receptor 3 (Homo sapiens, UniProt P29320); assay: Inhibition of EPHA3 (unknown origin)
[9] = Inhibition of GSK3 (unknown origin); set-up: species or system Homo sapiens
[10] = molecular target: Cyclin-dependent kinase 2 (Homo sapiens, UniProt P24941); assay: Inhibition of CDK2 (unknown origin)
[11] = molecular target: 5'-AMP-activated protein kinase catalytic subunit alpha-1 (Homo sapiens, UniProt Q13131); assay: Inhibition of PRKKA1 (unknown origin)
[12] = Metabolic stability in human hepatocytes assessed as hepatic extraction ratio; type: ADME, cell-based, Hepatocyte; details: read-out: ERH
MDR1 (human) = assay: Permeability across apical to basolateral side in pig LLC-PK1 cells expressing human MDR1; type: ADME, cell-based, Sus scrofa; details: read-out: permeability
[13] = Aqueous solubility of the compound in JP1 fluid at pH 1.2; type: physicochemical
[14] = Aqueous solubility of the compound in JP2 fluid at […]; type: physicochemical
[15] = Drug absorption in male Sprague-Dawley rat at 1 mg/kg, […] by LC-MS/MS analysis; type: ADME, organism-based; details: in vivo, read-out: Drug absorption
[16] = Oral bioavailability in male Sprague-Dawley rat at 5 mg/kg; type: ADME, organism-based; details: in vivo
[17] = molecular target: Leucine-rich repeat serine/threonine-protein kinase 2 (Homo sapiens, UniProt Q5S007); assay: Inhibition of recombinant human GST-tagged LRRK2 expressed in baculovirus expression system
[18] = molecular target: Ribosomal protein S6 kinase alpha-2 (Homo sapiens, UniProt Q15349); assay: Inhibition of recombinant human full-length GST-tagged RSK3 expressed in insect cells
[19] = molecular target: Serine/threonine-protein kinase D1 (Homo sapiens, UniProt Q15139); assay: Inhibition of recombinant human full-length GST-tagged PKCmu expressed in baculovirus expression system
[20] = molecular target: Ribosomal protein S6 kinase alpha-3 (Homo sapiens, UniProt P51812); assay: Inhibition of recombinant human full-length His-tagged RSK2 expressed in baculovirus expression system
[21] = molecular target: Ribosomal protein S6 kinase alpha-6 (Homo sapiens, UniProt Q9UK32); assay: Inhibition of recombinant human full-length GST-tagged RSK4 expressed in baculovirus expression system
[22] = molecular target: Serine/threonine-protein kinase D2 (Homo sapiens, UniProt Q9BZL6); assay: Inhibition of recombinant human full-length GST-tagged PRKD2 expressed in baculovirus expression system
[23] = molecular target: Casein kinase I isoform gamma-1 (Homo sapiens, UniProt Q9HCP0); assay: Inhibition of CK1gamma1 (unknown origin)
[24] = molecular target: Casein kinase I isoform gamma-3 (Homo sapiens, UniProt Q9Y6M4); assay: Inhibition of CK1gamma3 (unknown origin)
[25] = molecular target: T1, Mitogen-activated protein kinase kinase kinase 5; assay: Inhibition of ASK1 (unknown origin) by cell based assay
[26] = molecular target: T1, Mitogen-activated protein kinase kinase kinase 5; assay: Binding affinity to ASK1 (unknown origin)
Homo sapiens [27] = species on record: Homo sapiens; assay: Selectivity ratio of IC50 for inhibition of recombinant human GST-tagged LRRK2 expressed in baculovirus expression system to IC50 for inhibition of ASK1 (unknown origin)
Homo sapiens [28] = species on record: Homo sapiens; assay: Selectivity ratio of IC50 for inhibition of recombinant human full-length GST-tagged RSK3 expressed in insect cells to IC50 for inhibition of ASK1 (unknown origin)
Homo sapiens [29] = species on record: Homo sapiens; assay: Selectivity ratio of IC50 for inhibition of recombinant human full-length GST-tagged PKCmu expressed in baculovirus expression system to IC50 for inhibition of ASK1 (unknown origin)
Homo sapiens [30] = species on record: Homo sapiens; assay: Selectivity ratio of IC50 for inhibition of recombinant human full-length His-tagged RSK2 expressed in baculovirus expression system to IC50 for inhibition of ASK1 (unknown origin)
Homo sapiens [31] = species on record: Homo sapiens; assay: Selectivity ratio of IC50 for inhibition of recombinant human full-length GST-tagged RSK4 expressed in baculovirus expression system to IC50 for inhibition of ASK1 (unknown origin)
Homo sapiens [32] = species on record: Homo sapiens; assay: Selectivity ratio of IC50 for inhibition of recombinant human full-length GST-tagged PRKD2 expressed in baculovirus expression system to IC50 for inhibition of ASK1 (unknown origin)
Homo sapiens [33] = species on record: Homo sapiens; assay: Selectivity ratio of IC50 for inhibition of CK1gamma1 (unknown origin) to IC50 for inhibition of ASK1 (unknown origin)
Homo sapiens [34] = species on record: Homo sapiens; assay: Selectivity ratio of IC50 for inhibition of CK1gamma3 (unknown origin) to IC50 for inhibition of ASK1 (unknown origin)

T2 sequence (Q15303 whole entry): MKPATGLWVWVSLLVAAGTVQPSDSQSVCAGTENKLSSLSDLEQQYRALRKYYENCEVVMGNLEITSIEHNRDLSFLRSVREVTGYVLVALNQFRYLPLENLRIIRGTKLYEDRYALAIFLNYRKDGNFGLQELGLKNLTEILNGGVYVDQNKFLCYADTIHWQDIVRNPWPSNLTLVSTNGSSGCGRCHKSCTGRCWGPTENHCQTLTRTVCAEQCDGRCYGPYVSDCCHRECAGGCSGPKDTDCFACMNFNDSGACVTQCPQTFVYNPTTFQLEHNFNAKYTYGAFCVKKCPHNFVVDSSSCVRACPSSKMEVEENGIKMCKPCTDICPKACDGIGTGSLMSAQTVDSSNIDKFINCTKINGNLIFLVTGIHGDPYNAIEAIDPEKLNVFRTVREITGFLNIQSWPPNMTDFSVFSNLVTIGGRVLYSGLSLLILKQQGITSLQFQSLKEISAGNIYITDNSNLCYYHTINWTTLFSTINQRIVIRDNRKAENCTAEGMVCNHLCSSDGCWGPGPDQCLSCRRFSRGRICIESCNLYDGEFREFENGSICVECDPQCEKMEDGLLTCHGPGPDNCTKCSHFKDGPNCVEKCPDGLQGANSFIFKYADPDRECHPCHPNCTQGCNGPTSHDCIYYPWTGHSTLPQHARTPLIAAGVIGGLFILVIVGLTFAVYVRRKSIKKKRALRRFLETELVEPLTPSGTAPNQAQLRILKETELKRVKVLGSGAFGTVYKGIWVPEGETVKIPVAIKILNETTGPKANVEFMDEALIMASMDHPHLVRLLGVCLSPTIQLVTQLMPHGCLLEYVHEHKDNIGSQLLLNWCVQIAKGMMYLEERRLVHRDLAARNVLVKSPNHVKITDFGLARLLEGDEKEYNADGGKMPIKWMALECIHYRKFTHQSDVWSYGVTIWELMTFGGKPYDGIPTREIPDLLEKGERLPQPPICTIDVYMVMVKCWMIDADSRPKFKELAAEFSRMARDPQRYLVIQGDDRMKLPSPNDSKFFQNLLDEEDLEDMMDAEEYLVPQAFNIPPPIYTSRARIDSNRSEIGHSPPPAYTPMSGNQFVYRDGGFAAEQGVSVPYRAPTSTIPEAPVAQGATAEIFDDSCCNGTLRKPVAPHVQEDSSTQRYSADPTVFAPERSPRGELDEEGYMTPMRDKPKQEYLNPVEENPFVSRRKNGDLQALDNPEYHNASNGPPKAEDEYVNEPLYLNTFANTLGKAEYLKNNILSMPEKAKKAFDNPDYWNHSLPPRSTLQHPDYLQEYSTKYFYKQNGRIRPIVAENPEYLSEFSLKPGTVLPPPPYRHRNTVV
Sequence of Epidermal growth factor receptor (P00533 whole entry): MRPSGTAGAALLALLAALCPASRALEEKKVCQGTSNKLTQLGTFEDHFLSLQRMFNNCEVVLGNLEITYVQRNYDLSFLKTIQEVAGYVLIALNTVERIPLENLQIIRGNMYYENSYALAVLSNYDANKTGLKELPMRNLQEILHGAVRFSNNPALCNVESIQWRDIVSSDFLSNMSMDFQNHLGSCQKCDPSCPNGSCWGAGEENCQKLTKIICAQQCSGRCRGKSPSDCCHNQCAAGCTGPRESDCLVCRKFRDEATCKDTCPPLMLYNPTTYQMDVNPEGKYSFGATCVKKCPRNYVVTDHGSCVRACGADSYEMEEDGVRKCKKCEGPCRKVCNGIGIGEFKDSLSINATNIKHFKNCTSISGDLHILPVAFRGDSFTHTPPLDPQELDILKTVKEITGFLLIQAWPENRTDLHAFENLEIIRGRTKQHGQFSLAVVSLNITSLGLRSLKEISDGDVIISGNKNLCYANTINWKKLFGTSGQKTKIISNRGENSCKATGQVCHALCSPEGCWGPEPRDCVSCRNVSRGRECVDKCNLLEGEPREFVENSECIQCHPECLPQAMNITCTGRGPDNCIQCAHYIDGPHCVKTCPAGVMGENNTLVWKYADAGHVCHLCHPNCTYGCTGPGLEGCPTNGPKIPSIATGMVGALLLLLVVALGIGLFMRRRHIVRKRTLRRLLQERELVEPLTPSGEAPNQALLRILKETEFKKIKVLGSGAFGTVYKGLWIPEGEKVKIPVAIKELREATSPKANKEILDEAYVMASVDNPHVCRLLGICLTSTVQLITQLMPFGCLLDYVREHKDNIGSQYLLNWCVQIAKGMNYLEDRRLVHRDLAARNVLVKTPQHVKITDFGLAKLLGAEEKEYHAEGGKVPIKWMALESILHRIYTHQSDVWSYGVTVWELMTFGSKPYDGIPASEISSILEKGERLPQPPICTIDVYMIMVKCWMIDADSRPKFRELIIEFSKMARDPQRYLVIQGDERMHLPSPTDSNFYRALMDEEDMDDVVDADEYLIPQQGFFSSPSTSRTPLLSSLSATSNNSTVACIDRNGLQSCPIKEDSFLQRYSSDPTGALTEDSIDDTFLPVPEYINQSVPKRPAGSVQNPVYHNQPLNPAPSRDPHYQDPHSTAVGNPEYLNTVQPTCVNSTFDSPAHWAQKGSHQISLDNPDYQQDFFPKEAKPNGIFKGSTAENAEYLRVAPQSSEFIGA
Sequence of 5'-AMP-activated protein kinase catalytic subunit alpha-1 (Q13131 whole entry): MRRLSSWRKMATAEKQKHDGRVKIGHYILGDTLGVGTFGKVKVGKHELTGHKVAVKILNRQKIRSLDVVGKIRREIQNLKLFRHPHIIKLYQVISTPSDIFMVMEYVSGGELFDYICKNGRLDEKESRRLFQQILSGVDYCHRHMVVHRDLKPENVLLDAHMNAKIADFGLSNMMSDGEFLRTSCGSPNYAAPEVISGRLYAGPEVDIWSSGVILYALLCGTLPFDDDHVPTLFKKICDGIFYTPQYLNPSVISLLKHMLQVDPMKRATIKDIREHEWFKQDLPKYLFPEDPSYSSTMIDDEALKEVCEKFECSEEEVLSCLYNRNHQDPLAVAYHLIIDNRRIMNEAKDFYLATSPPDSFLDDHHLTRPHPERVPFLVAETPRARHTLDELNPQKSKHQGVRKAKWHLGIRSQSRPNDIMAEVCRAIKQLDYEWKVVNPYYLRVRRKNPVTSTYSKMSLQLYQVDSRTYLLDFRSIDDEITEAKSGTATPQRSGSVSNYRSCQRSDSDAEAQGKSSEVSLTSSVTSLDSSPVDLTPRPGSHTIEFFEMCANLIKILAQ
Sequence of Tyrosine-protein kinase ITK/TSK (Q08881 whole entry): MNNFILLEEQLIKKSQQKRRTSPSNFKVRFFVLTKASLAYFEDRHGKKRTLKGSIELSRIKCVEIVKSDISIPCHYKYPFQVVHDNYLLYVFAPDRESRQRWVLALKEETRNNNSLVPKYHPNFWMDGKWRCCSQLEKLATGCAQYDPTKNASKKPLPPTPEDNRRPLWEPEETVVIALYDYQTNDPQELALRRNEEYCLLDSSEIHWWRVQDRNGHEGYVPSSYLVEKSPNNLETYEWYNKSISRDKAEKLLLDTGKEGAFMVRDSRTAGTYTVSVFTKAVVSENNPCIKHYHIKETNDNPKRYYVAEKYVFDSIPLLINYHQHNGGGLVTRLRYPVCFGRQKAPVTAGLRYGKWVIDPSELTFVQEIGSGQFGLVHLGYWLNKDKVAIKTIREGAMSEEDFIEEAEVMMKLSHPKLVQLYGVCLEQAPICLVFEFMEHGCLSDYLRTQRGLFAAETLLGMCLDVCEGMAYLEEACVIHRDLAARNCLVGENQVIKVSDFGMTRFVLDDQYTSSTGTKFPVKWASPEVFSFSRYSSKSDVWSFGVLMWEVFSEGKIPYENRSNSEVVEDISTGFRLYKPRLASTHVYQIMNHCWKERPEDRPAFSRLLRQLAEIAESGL
Sequence of Rho-associated protein kinase 1 (Q13464 whole entry): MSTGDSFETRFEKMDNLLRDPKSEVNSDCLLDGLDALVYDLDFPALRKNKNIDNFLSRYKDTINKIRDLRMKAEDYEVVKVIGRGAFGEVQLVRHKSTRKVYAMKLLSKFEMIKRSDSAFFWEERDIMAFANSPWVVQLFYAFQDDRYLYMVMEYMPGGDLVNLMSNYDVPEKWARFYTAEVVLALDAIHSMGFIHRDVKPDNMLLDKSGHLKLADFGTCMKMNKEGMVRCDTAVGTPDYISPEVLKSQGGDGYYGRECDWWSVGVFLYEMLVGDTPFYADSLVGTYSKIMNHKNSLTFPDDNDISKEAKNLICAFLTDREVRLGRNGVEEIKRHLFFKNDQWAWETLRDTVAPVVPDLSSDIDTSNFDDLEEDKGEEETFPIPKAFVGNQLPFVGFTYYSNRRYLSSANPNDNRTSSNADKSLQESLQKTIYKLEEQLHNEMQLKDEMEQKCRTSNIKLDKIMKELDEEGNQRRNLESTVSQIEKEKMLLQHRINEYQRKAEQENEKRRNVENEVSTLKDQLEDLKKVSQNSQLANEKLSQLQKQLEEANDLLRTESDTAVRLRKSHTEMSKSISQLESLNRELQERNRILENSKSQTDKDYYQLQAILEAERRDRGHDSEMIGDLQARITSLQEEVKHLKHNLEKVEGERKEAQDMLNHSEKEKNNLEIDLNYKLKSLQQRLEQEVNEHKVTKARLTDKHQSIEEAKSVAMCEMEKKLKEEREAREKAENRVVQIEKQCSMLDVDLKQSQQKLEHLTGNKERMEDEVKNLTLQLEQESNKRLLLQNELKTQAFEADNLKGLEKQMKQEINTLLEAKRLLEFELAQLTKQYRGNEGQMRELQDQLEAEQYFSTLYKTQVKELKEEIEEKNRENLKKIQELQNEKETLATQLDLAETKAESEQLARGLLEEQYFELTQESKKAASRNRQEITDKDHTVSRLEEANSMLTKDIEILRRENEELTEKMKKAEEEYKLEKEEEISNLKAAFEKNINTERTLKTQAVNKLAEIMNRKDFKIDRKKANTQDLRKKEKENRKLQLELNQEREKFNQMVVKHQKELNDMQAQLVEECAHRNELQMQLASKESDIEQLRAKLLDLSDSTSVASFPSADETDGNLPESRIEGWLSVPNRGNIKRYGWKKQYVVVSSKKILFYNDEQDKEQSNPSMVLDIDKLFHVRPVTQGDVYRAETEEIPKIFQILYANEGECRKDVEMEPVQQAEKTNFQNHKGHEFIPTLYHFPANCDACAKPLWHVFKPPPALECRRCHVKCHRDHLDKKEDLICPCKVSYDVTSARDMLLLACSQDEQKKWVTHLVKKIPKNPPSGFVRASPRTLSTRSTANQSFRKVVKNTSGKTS

IC50 [1]: 130 nM
SMILES: CC(C)n1cnnc1-c1cccc(NC(=O)C2CN(c3ccccc3)CCO2)n1 (centres undefined)

IC50 [1]: 2 nM
SMILES: CC(C)n1cnnc1-c1cccc(NC(=O)C2CN(C)CCO2)n1 (centres undefined)

Continued, molecule first:

SMILES: CC(C)n1cnnc1-c1cccc(N2Cc3ccccc3C2=O)n1
IC50 [1]: 14 nM | pIC50 (MAP kinase p38): < 4.7 | IC50 [2]: > 20000 nM | IC50 [3]: > 20000 nM | IC50 [4]: 631 nM | IC50 [5]: 63.1 nM | IC50 [6]: 1000 nM | IC50 [7]: 1260 nM | IC50 [8]: > 20000 nM | IC50 (Ephrin type-A receptor 3): > 20000 nM | pIC50 [9]: 7.4 | IC50 [10]: 63.1 nM | IC50 [11]: 200 nM

SMILES: CC(C)n1cnnc1-c1cccc(NC(=O)[C@H]2CN(c3ccc(C4CC4)nc3)CCO2)n1
IC50 [1]: 17 nM | hepatic extraction ratio [12]: 0.32 | Papp A→B (MDR1 (human)): 10.7 ×10⁻⁶ cm/s | solubility [13]: > 200 µM | solubility [14]: 101 µM (≈ 43.8 µg/mL) | Fa [15]: 52% | bioavailability [16]: 18% | IC50 [17]: ≤ 500 nM | IC50 [18]: ≤ 500 nM | IC50 [19]: ≤ 500 nM | IC50 [20]: ≤ 500 nM | IC50 [21]: ≤ 500 nM | IC50 [22]: ≤ 500 nM | IC50 [23]: ≤ 500 nM | IC50 [24]: ≤ 500 nM | EC50 [25]: 24 nM | Kd [26]: < 1 nM | Ratio IC50 (Homo sapiens [27]): < 20 | Ratio IC50 (Homo sapiens [28]): < 20 | Ratio IC50 (Homo sapiens [29]): < 20 | Ratio IC50 (Homo sapiens [30]): < 20 | Ratio IC50 (Homo sapiens [31]): < 20 | Ratio IC50 (Homo sapiens [32]): < 20 | Ratio IC50 (Homo sapiens [33]): < 20 | Ratio IC50 (Homo sapiens [34]): < 20

SMILES: CC(C)n1cnnc1-c1cccc(NC(=O)C2CN(c3cccnc3)CCO2)n1 (centres undefined)
IC50 [1]: 31 nM

SMILES: CC(C)n1cnnc1-c1cccc(NC(=O)C2CCCCO2)n1 (centres undefined)
IC50 [1]: 270 nM | pIC50 (MAP kinase p38): < 4.7 | IC50 [2]: > 20000 nM | IC50 [3]: > 20000 nM | IC50 [4]: > 20000 nM | IC50 [5]: > 20000 nM | IC50 [6]: > 20000 nM | IC50 [7]: > 20000 nM | IC50 [8]: > 20000 nM | IC50 (Ephrin type-A receptor 3): > 20000 nM | pIC50 [9]: 6.2 | IC50 [10]: 3160 nM | IC50 [11]: > 20000 nM
